Measured values from patent US20160083357A1, “NOVEL TETRAZOLONE DERIVATIVES” (Hoffmann-La Roche Inc., priority 2013, published 2016).
Where two headings read alike, the source gives them in different places.

Tests used:
human CB1 receptors = biological target: T1, human CB1 receptors (Homo sapiens, UniProt P21554); assay: cAMP assay, human CB1; format: cell-based
T1 construct: expressed in transfected cells; host or cells: CHO cells
Outline: (§1)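 CHO cells expressing human CB1 or CB2, preincubated in Krebs Ringer bicarbonate with 1 mM IBMX, then compound for 30 min at 30° C. cAMP quantified by time-resolved FRET (cAMP-Nano-TRF) against a cAMP standard curve; EC50 values derived.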

human CB2 receptors = biological target: T2, human CB2 receptors (Homo sapiens, UniProt P34972); assay: cAMP assay, human CB2; format: cell-based
T2 construct: expressed in transfected cells; host or cells: CHO cells
T2 sequence (P34972 whole entry): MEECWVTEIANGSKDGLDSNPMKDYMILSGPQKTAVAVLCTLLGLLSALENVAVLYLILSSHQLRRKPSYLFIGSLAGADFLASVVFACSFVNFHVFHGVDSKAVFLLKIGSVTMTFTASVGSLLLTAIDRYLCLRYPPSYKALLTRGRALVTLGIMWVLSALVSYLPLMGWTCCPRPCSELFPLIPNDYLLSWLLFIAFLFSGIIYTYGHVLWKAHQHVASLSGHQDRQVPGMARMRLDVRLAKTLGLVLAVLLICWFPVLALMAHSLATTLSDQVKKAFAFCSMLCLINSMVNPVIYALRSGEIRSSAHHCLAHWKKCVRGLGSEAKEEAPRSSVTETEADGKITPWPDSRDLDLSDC
Outline: as §1

[1] = functional cAMP assay, CHO cells expressing human CB1, read-out: Ec50: CB1 - hu cAMP
[2] = functional cAMP assay, CHO cells expressing human CB2, read-out: Ec50: CB2 - hu cAMP

T1 sequence (P21554 whole entry): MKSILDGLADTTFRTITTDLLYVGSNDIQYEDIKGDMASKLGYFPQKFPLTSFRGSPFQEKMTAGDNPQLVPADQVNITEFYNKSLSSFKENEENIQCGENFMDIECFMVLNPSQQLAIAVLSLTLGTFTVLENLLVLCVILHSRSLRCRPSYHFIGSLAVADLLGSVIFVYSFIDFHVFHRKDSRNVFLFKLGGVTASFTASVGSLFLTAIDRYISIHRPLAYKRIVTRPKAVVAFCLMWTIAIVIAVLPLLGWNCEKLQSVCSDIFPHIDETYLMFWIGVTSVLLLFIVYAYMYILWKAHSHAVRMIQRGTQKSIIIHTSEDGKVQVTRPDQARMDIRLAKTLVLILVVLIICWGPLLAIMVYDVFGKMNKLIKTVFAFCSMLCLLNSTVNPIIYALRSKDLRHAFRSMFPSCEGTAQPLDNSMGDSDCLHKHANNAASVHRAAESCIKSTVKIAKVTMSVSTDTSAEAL

SMILES: COCCCN(C)C(=O)n1nnn(-c2cccc(OC(F)(F)F)c2)c1=O [Example 87, 5-Oxo-4-(3-trifluoromethoxy-phenyl)-4,5-dihydro-tetrazole-1-carboxylic acid (3-methoxy-propyl)-methyl-amide]
- EC50 (human CB1 receptors): > 10000 nM
- EC50 (human CB2 receptors): 3.6 nM

SMILES: COCCCN(C)C(=O)n1nnn(-c2ccc(Cl)cc2)c1=O [Example 88, 4-(4-Chloro-phenyl)-5-oxo-4,5-dihydro-tetrazole-1-carboxylic acid (3-methoxy-propyl)-methyl-amide]
- EC50 (human CB1 receptors; [1]): > 10000 nM
- EC50 (human CB2 receptors; [2]): 1.9 nM

SMILES: O=C(CN1CCN(C(=O)n2nnn(-c3cccc(Cl)c3)c2=O)CC1)N1CCOCC1 [Example 89, 1-(3-Chloro-phenyl)-4-[4-(2-morpholin-4-yl-2-oxo-ethyl)-piperazine-1-carbonyl]-1,4-dihydro-tetrazol-5-one]
- EC50 (human CB1 receptors; [1]): > 10000 nM
- EC50 (human CB2 receptors; [2]): 16.9 nM

SMILES: O=C(CN1CCN(C(=O)n2nnn(-c3cccc(OC(F)(F)F)c3)c2=O)CC1)N1CCOCC1 [Example 90, 1-[4-(2-Morpholin-4-yl-2-oxo-ethyl)-piperazine-1-carbonyl]-4-(3-trifluoromethoxy-phenyl)-1,4-dihydro-tetrazol-5-one]
- EC50 (human CB1 receptors; [1]): > 10000 nM
- EC50 (human CB2 receptors; [2]): 67 nM

SMILES: O=C(CN1CCN(C(=O)n2nnn(-c3ccc(Cl)cc3)c2=O)CC1)N1CCOCC1 [Example 91, 1-(4-Chloro-phenyl)-4-[4-(2-morpholin-4-yl-2-oxo-ethyl)-piperazine-1-carbonyl]-1,4-dihydro-tetrazol-5-one]
- EC50 (human CB1 receptors; [1]): > 10000 nM
- EC50 (human CB2 receptors; [2]): 42.8 nM

SMILES: CN(C)C(=O)CN1CCN(C(=O)n2nnn(-c3cccc(Cl)c3)c2=O)CC1 [Example 92, 2-{4-[4-(3-Chloro-phenyl)-5-oxo-4,5-dihydro-tetrazole-1-carbonyl]-piperazin-1-yl}-N,N-dimethyl-acetamide]
- EC50 (human CB1 receptors; [1]): > 10000 nM
- EC50 (human CB2 receptors; [2]): 16.4 nM

SMILES: CN(C)C(=O)CN1CCN(C(=O)n2nnn(-c3cccc(OC(F)(F)F)c3)c2=O)CC1 [Example 93, N,N-Dimethyl-2-{4-[5-oxo-4-(3-trifluoromethoxy-phenyl)-4,5-dihydro-tetrazole-1-carbonyl]-piperazin-1-yl}-acetamide]
- EC50 (human CB1 receptors; [1]): > 10000 nM
- EC50 (human CB2 receptors; [2]): 24.2 nM

SMILES: CN(C)C(=O)CN1CCN(C(=O)n2nnn(-c3ccc(Cl)cc3)c2=O)CC1 [Example 94, 2-{4-[4-(4-Chloro-phenyl)-5-oxo-4,5-dihydro-tetrazole-1-carbonyl]-piperazin-1-yl}-N,N-dimethyl-acetamide]
- EC50 (human CB1 receptors; [1]): > 10000 nM
- EC50 (human CB2 receptors; [2]): 21.1 nM

SMILES: O=C(CN1CCN(C(=O)n2nnn(-c3cccc(Cl)c3)c2=O)CC1)N1CCCC1 [Example 95, 1-(3-Chloro-phenyl)-4-[4-(2-oxo-2-pyrrolidin-1-yl-ethyl)-piperazine-1-carbonyl]-1,4-dihydro-tetrazol-5-one]
- EC50 (human CB1 receptors; [1]): > 10000 nM
- EC50 (human CB2 receptors; [2]): 4.7 nM

SMILES: O=C(CN1CCN(C(=O)n2nnn(-c3cccc(OC(F)(F)F)c3)c2=O)CC1)N1CCCC1 [Example 96, 1-[4-(2-Oxo-2-pyrrolidin-1-yl-ethyl)-piperazine-1-carbonyl]-4-(3-trifluoromethoxy-phenyl)-1,4-dihydro-tetrazol-5-one]
- EC50 (human CB1 receptors; [1]): > 10000 nM
- EC50 (human CB2 receptors; [2]): 18.2 nM

SMILES: O=C(CN1CCN(C(=O)n2nnn(-c3ccc(Cl)cc3)c2=O)CC1)N1CCCC1 [Example 97, 1-(4-Chloro-phenyl)-4-[4-(2-oxo-2-pyrrolidin-1-yl-ethyl)-piperazine-1-carbonyl]-1,4-dihydro-tetrazol-5-one]
- EC50 (human CB1 receptors; [1]): > 10000 nM
- EC50 (human CB2 receptors; [2]): 12.9 nM

SMILES: CCOCCN(CC)C(=O)n1nnn(-c2cccc(Cl)c2)c1=O [Example 98, 4-(3-Chloro-phenyl)-5-oxo-4,5-dihydro-tetrazole-1-carboxylic acid (2-ethoxy-ethyl)-ethyl-amide]
- EC50 (human CB1 receptors): > 10000 nM
- EC50 (human CB2 receptors): 1.8 nM

SMILES: CCOCCN(CC)C(=O)n1nnn(-c2cccc(OC(F)(F)F)c2)c1=O [Example 99, 5-Oxo-4-(3-trifluoromethoxy-phenyl)-4,5-dihydro-tetrazole-1-carboxylic acid (2-ethoxy-ethyl)-ethyl-amide]
- EC50 (human CB1 receptors; [1]): > 10000 nM
- EC50 (human CB2 receptors; [2]): 12.5 nM

SMILES: CCOCCN(CC)C(=O)n1nnn(-c2ccc(Cl)cc2)c1=O [Example 100, 4-(4-Chloro-phenyl)-5-oxo-4,5-dihydro-tetrazole-1-carboxylic acid (2-ethoxy-ethyl)-ethyl-amide]
- EC50 (human CB1 receptors): > 10000 nM
- EC50 (human CB2 receptors): 1.7 nM

SMILES: O=C(N1CCOCC1)n1nnn(-c2cccc(Cl)c2)c1=O [Example 101, 1-(3-Chloro-phenyl)-4-(morpholine-4-carbonyl)-1,4-dihydro-tetrazol-5-one]
- EC50 (human CB1 receptors; [1]): > 10000 nM
- EC50 (human CB2 receptors; [2]): 3.2 nM

SMILES: O=C(N1CCOCC1)n1nnn(-c2cccc(OC(F)(F)F)c2)c1=O [Example 102, 1-(Morpholine-4-carbonyl)-4-(3-trifluoromethoxy-phenyl)-1,4-dihydro-tetrazol-5-one]
- EC50 (human CB1 receptors; [1]): > 10000 nM
- EC50 (human CB2 receptors; [2]): 4.4 nM

SMILES: O=C(N1CCOCC1)n1nnn(-c2ccc(Cl)cc2)c1=O [Example 103, 1-(4-Chloro-phenyl)-4-(morpholine-4-carbonyl)-1,4-dihydro-tetrazol-5-one]
- EC50 (human CB1 receptors; [1]): > 10000 nM
- EC50 (human CB2 receptors; [2]): 4.5 nM

SMILES: CCNC(=O)CN1CCN(C(=O)n2nnn(-c3cccc(Cl)c3)c2=O)CC1 [Example 104, 2-{4-[4-(3-Chloro-phenyl)-5-oxo-4,5-dihydro-tetrazole-1-carbonyl]-piperazin-1-yl}-N-ethyl-acetamide]
- EC50 (human CB1 receptors; [1]): > 10000 nM
- EC50 (human CB2 receptors; [2]): 12.7 nM

SMILES: CCNC(=O)CN1CCN(C(=O)n2nnn(-c3cccc(OC(F)(F)F)c3)c2=O)CC1 [Example 105, N-Ethyl-2-{4-[5-oxo-4-(3-trifluoromethoxy-phenyl)-4,5-dihydro-tetrazole-1-carbonyl]-piperazin-1-yl}-acetamide]
- EC50 (human CB1 receptors; [1]): > 10000 nM
- EC50 (human CB2 receptors; [2]): 20.1 nM

SMILES: CCNC(=O)CN1CCN(C(=O)n2nnn(-c3ccc(Cl)cc3)c2=O)CC1 [Example 106, 2-{4-[4-(4-Chloro-phenyl)-5-oxo-4,5-dihydro-tetrazole-1-carbonyl]-piperazin-1-yl}-N-ethyl-acetamide]
- EC50 (human CB1 receptors; [1]): > 10000 nM
- EC50 (human CB2 receptors; [2]): 10.6 nM

SMILES: CCCCNC(=O)CN1CCN(C(=O)n2nnn(-c3cccc(Cl)c3)c2=O)CC1 [Example 107, N-Butyl-2-{4-[4-(3-chloro-phenyl)-5-oxo-4,5-dihydro-tetrazole-1-carbonyl]-piperazin-1-yl}-acetamide]
- EC50 (human CB1 receptors; [1]): > 10000 nM
- EC50 (human CB2 receptors; [2]): 2.9 nM

SMILES: CCCCNC(=O)CN1CCN(C(=O)n2nnn(-c3cccc(OC(F)(F)F)c3)c2=O)CC1 [Example 108, N-Butyl-2-{4-[5-oxo-4-(3-trifluoromethoxy-phenyl)-4,5-dihydro-tetrazole-1-carbonyl]-piperazin-1-yl}-acetamide]
- EC50 (human CB1 receptors; [1]): > 10000 nM
- EC50 (human CB2 receptors; [2]): 13.9 nM

SMILES: CCCCNC(=O)CN1CCN(C(=O)n2nnn(-c3ccc(Cl)cc3)c2=O)CC1 [Example 109, N-Butyl-2-{4-[4-(4-chloro-phenyl)-5-oxo-4,5-dihydro-tetrazole-1-carbonyl]-piperazin-1-yl}-acetamide]
- EC50 (human CB1 receptors; [1]): > 10000 nM
- EC50 (human CB2 receptors; [2]): 4.2 nM

SMILES: COCCNC(=O)n1nnn(-c2cccc(F)c2)c1=O [Example 110, 4-(3-Fluoro-phenyl)-5-oxo-4,5-dihydro-tetrazole-1-carboxylic acid (2-methoxy-ethyl)-amide]
- EC50 (human CB1 receptors; [1]): > 10000 nM
- EC50 (human CB2 receptors; [2]): 968 nM

SMILES: CCOCCN(C)C(=O)n1nnn(-c2cccc(Cl)c2)c1=O [Example 111, 4-(3-Chloro-phenyl)-5-oxo-4,5-dihydro-tetrazole-1-carboxylic acid (2-ethoxy-ethyl)-methyl-amide]
- EC50 (human CB1 receptors; [1]): > 10000 nM
- EC50 (human CB2 receptors; [2]): 1.5 nM

SMILES: CCOCCN(C)C(=O)n1nnn(-c2cccc(OC(F)(F)F)c2)c1=O [Example 112, 5-Oxo-4-(3-trifluoromethoxy-phenyl)-4,5-dihydro-tetrazole-1-carboxylic acid (2-ethoxy-ethyl)-methyl-amide]
- EC50 (human CB1 receptors): > 10000 nM
- EC50 (human CB2 receptors): 4.1 nM

SMILES: CCOCCN(C)C(=O)n1nnn(-c2ccc(Cl)cc2)c1=O [Example 113, 4-(4-Chloro-phenyl)-5-oxo-4,5-dihydro-tetrazole-1-carboxylic acid (2-ethoxy-ethyl)-methyl-amide]
- EC50 (human CB1 receptors; [1]): > 10000 nM
- EC50 (human CB2 receptors; [2]): 1.4 nM

SMILES: CCOC(=O)Cn1nnn(-c2cccc(Cl)c2)c1=O [Example 114, [4-(3-Chloro-phenyl)-5-oxo-4,5-dihydro-tetrazol-1-yl]-acetic acid ethyl ester]
- EC50 (human CB1 receptors; [1]): > 10000 nM
- EC50 (human CB2 receptors; [2]): 1990 nM

SMILES: O=C(Cn1nnn(-c2cccc(Cl)c2)c1=O)N1CCOCC1 [Example 115, 1-(3-Chloro-phenyl)-4-(2-morpholin-4-yl-2-oxo-ethyl)-1,4-dihydro-tetrazol-5-one]
- EC50 (human CB1 receptors; [1]): > 10000 nM
- EC50 (human CB2 receptors; [2]): 2020 nM

SMILES: CC(C(=O)N1CCCC1)N1CCN(C(=O)n2nnn(-c3cccc(Cl)c3)c2=O)CC1 (stereo not drawn) [Example 116, 1-(3-Chloro-phenyl)-4-[4-(1-methyl-2-oxo-2-pyrrolidin-1-yl-ethyl)-piperazine-1-carbonyl]-1,4-dihydro-tetrazol-5-one]
- EC50 (human CB1 receptors; [1]): > 10000 nM
- EC50 (human CB2 receptors; [2]): 122 nM

SMILES: CC(C(=O)N1CCCC1)N1CCN(C(=O)n2nnn(-c3cccc(OC(F)(F)F)c3)c2=O)CC1 (stereo not drawn) [Example 117, 1-[4-(1-Methyl-2-oxo-2-pyrrolidin-1-yl-ethyl)-piperazine-1-carbonyl]-4-(3-trifluoromethoxy-phenyl)-1,4-dihydro-tetrazol-5-one]
- EC50 (human CB1 receptors; [1]): > 10000 nM
- EC50 (human CB2 receptors; [2]): 106 nM

SMILES: CC(C(=O)N1CCCC1)N1CCN(C(=O)n2nnn(-c3ccc(Cl)cc3)c2=O)CC1 (stereo not drawn) [Example 118, 1-(4-Chloro-phenyl)-4-[4-(1-methyl-2-oxo-2-pyrrolidin-1-yl-ethyl)-piperazine-1-carbonyl]-1,4-dihydro-tetrazol-5-one]
- EC50 (human CB1 receptors; [1]): > 10000 nM
- EC50 (human CB2 receptors; [2]): 114 nM

SMILES: O=C(N1CCOCC1)n1nnn(-c2ccccc2C(F)(F)F)c1=O [Example 119, 1-(morpholine-4-carbonyl)-4-[2-(trifluoromethyl)phenyl]tetrazol-5-one]
- EC50 (human CB1 receptors; [1]): > 10000 nM
- EC50 (human CB2 receptors; [2]): 386 nM
